This is an account of results in ChEMBL document CHEMBL1135457 (J Med Chem, 2002).

The structures appear in SMILES notation.

One experiment deals with T1, Androgen receptor (Homo sapiens, UniProt P10275).
T1 sequence (P10275 whole entry): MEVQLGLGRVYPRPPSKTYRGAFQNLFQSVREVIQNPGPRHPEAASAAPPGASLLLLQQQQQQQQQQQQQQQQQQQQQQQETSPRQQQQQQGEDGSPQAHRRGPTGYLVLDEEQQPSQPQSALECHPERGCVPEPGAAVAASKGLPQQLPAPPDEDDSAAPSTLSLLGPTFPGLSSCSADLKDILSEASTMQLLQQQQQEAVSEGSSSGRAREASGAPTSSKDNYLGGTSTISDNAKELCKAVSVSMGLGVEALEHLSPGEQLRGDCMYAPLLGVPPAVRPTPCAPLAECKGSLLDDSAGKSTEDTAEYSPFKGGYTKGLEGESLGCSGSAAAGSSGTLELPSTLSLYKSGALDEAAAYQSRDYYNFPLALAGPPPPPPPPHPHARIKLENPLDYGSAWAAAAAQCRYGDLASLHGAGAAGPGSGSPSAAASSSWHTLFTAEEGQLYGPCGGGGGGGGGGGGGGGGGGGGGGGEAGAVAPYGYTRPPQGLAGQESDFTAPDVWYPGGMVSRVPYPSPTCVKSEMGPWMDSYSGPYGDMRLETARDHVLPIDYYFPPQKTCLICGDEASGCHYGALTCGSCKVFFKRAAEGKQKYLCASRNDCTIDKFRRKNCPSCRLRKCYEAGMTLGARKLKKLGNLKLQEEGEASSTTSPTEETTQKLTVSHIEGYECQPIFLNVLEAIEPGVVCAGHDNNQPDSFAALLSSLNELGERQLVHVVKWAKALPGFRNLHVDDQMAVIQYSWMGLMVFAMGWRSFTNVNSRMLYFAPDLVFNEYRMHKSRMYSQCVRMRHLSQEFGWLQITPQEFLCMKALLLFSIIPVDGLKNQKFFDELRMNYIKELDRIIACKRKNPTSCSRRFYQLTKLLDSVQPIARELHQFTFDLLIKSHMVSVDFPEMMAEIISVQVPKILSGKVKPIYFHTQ
Description: Displacement of [3H]DHT from human Androgen receptor. (In general: Loss of bound radioactivity is the signal in a displacement assay; it reports binding, not function.)

Another experiment concerns the target T2, Glucocorticoid receptor (Homo sapiens, UniProt P04150).
T2 sequence (P04150 whole entry): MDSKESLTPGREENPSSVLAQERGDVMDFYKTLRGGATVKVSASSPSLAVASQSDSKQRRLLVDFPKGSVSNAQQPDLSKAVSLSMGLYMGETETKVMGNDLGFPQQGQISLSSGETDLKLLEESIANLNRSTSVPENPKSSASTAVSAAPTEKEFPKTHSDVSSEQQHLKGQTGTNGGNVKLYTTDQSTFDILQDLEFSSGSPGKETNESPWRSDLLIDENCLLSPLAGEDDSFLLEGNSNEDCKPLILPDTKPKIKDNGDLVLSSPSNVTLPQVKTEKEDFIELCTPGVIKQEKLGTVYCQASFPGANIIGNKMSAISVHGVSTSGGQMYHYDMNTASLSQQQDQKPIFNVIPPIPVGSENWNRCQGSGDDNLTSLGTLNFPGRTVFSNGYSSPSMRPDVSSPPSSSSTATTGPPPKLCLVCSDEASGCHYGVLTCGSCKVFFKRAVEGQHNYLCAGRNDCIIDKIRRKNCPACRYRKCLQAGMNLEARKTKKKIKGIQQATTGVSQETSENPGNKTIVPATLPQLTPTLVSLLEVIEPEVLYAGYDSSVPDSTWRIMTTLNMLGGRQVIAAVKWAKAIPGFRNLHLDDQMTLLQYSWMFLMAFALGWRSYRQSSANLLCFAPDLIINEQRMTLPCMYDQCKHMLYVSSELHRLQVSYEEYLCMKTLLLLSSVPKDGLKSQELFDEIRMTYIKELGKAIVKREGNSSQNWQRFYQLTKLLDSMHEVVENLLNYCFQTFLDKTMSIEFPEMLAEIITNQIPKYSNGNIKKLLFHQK
The experiment in a line: Displacement of 10 nM [3H]dexamethasone from human Glucocorticoid receptor.

Experiment [1] concerns the target T3, Estrogen receptor beta (Homo sapiens, UniProt Q92731). The experiment in a line: Displacement of radioligand from human ER beta.
In another experiment the target is T4, Progesterone receptor (Homo sapiens, UniProt P06401).
T4 sequence (P06401 whole entry): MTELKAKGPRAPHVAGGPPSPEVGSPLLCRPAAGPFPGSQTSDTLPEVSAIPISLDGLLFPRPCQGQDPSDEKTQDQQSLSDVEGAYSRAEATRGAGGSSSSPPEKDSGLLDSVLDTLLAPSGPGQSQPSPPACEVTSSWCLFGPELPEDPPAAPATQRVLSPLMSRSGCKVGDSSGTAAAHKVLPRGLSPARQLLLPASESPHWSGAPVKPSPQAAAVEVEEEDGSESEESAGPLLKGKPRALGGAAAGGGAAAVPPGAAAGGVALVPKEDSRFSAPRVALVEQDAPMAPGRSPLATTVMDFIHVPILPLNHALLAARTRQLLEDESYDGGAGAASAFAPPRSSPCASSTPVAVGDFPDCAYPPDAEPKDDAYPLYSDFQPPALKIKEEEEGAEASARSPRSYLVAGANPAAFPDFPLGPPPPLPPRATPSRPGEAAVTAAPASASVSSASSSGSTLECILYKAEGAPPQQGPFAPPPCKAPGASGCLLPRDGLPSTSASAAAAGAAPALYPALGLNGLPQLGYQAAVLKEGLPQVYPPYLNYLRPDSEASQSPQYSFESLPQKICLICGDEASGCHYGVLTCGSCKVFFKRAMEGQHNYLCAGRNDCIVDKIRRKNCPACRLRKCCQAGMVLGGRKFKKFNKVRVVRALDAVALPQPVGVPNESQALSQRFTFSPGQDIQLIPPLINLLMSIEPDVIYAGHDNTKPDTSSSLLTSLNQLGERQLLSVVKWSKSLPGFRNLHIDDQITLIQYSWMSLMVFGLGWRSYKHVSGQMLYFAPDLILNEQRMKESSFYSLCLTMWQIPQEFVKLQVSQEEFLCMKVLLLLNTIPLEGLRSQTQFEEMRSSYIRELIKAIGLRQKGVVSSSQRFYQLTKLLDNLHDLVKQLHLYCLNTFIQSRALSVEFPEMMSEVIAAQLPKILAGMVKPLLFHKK
Description: Displacement of radioligand from human Progesterone receptor.

Experiment [2] has as its target T5, Estrogen receptor (Homo sapiens) (UniProt P03372).
T5 sequence (whole entry): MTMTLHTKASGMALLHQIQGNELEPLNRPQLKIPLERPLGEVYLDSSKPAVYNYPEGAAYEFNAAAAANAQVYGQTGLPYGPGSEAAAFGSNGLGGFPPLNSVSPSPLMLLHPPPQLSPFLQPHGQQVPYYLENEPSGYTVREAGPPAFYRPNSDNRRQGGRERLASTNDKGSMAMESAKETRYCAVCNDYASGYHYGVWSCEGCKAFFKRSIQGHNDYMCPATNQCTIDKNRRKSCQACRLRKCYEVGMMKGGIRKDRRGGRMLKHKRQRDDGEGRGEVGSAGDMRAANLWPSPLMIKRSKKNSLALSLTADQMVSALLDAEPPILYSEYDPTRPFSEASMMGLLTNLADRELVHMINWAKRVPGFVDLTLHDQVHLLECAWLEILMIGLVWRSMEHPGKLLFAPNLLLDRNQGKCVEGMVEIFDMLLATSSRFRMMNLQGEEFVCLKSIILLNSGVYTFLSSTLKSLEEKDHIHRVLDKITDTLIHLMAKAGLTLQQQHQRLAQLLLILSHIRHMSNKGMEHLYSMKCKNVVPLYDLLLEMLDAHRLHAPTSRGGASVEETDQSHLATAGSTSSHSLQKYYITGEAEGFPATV
The experiment in a line: Displacement of radioligand from human Estrogen receptor alpha, percent inhibition at 10 uM.

The target of experiment [3] is T6, Mineralocorticoid receptor (Homo sapiens) (UniProt P08235).
T6 sequence (whole entry): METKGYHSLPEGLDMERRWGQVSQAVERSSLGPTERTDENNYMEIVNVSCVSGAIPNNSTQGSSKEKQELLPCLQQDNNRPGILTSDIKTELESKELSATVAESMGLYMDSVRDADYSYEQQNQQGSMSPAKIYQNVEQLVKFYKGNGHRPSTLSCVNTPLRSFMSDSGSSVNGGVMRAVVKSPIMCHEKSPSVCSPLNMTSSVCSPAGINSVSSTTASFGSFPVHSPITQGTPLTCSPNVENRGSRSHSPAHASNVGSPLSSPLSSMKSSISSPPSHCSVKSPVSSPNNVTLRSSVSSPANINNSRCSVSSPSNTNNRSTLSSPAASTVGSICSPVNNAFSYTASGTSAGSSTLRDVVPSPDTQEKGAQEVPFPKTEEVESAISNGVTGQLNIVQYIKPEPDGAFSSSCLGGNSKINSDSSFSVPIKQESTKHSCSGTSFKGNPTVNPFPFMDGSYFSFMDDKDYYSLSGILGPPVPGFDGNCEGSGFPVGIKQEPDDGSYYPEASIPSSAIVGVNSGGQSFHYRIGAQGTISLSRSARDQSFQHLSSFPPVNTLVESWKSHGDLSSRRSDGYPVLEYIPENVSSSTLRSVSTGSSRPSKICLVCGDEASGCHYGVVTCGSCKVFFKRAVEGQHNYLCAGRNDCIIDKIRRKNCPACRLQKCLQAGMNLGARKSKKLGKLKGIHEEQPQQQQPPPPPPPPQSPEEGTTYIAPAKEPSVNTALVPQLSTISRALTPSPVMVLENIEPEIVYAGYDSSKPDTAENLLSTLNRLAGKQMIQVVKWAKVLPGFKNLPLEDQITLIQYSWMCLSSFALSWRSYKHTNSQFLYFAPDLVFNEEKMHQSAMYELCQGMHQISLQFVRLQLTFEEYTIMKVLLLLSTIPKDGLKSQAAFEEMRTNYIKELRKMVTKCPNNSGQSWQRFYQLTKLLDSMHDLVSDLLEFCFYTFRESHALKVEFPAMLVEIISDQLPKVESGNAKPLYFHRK

For experiment [4], the target named is T3, Estrogen receptor beta. Description: Displacement of radioligand from human Estrogen receptor beta, percent inhibition at 10 uM.
Experiment [5] deals with T7, Glucocorticoid receptor (Homo sapiens) (UniProt P04150).
T7 sequence (whole entry): T2 sequence (P04150 whole entry)
Description: (§1) Antagonist activity as displacement of 10 nM [3H]dexamethasone from human Glucocorticoid receptor

Experiment [6] deals with T8, Progesterone receptor (Homo sapiens) (UniProt P06401).
T8 sequence (whole entry): T4 sequence (P06401 whole entry)
Description: (§2) Antagonist activity against human Progesterone receptor by displacement of radioligand

For experiment [7], the target named is T8, Progesterone receptor (Homo sapiens). Particulars: 1 uM.
Description: Antagonist activity against human Progesterone receptor as displacement of radioligand, percent inhibition at 1 uM
For experiment [8], the target named is T6, Mineralocorticoid receptor (Homo sapiens). The experiment in a line: Antagonist activity against human mineralocorticoid receptor as displacement of radioligand, percent […]. The class given is functional.
For experiment [9] the target is unchanged. This is another data set of the same source.
Experiment [10] addresses T7, Glucocorticoid receptor (Homo sapiens). This is another data set of the same source.
Description: as §1
For experiment [11], the target named is T8, Progesterone receptor (Homo sapiens). The source holds these as a separate data set.
Description: as §2
The next experiment concerns the target T9, Estrogen receptor (Homo sapiens, UniProt P03372).
T9 sequence (P03372 whole entry): T5 sequence (whole entry)
The experiment in a line: Displacement of radioligand from human Estrogen receptor alpha.

T3 sequence (Q92731 whole entry): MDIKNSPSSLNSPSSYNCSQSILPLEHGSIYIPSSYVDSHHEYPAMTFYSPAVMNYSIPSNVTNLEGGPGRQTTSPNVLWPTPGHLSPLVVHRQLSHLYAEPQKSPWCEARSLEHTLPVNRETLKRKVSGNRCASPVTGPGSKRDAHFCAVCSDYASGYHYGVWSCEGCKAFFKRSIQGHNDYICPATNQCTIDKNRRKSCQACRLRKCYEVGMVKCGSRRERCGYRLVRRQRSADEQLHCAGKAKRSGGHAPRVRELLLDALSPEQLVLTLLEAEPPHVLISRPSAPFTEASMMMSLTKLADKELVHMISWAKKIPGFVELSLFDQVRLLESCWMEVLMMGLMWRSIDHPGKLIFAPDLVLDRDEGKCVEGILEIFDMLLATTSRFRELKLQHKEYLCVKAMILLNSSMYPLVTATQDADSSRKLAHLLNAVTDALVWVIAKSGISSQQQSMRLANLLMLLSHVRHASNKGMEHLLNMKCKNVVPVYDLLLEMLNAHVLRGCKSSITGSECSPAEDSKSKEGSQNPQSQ

One may read the Ki as the dissociation constant of the complex between target and ligand, obtained from inhibition or displacement. A high value points to lower affinity. For `COc1ccc2c(c1)CCC1=CC(=O)CCC12Cc1ccccc1` (single isomer, unassigned; form 1) [listing 1 of 2 here], the Ki on Androgen receptor was 690 nM; at Glucocorticoid receptor, above 10 µM; at Estrogen receptor beta [1], above 10 µM; at Progesterone receptor, above 10 µM.

What is called inhibition is the drop in the measured response relative to a control, in per cent. Low values mean a response near the control, high ones a response far below the control. Turning to `O=C1C=C2CCc3cc(O)ccc3C2(Cc2ccccc2)CC1` (single isomer, unassigned; form 1) [listing 1 of 2 here], the inhibition in [2] stood at 36%; on Estrogen receptor beta [4], 24%. The Kif in [3], in experiment [5] and in experiment [6] was above 1000 nM in each case.

Regarding `O=C1C=C2CCc3cc(O)ccc3C2(Cc2ccccc2)CC1` (single isomer, unassigned; form 1) [listing 2 of 2 here], the Ki is above 10000 nM at Androgen receptor, above 10 µM at Glucocorticoid receptor and above 10 µM on Progesterone receptor.

As for `CC#C[C@]1(O)CC[C@H]2[C@@H]3CCC4=CC(=O)CCC4=C3[C@@H](c3ccc(N(C)C)cc3)C[C@@]21C`, the inhibition in [2] was 44%; in experiment [7], 100%; in [8], 69.7%; at Estrogen receptor beta [4] it was 92%. For the same compound, the Kif in experiment [6] is 11.8 nM; in [9], below 10 nM; in experiment [10], 2 nM.

`COc1ccc2c(c1)CCC1=CC(=O)CCC12Cc1ccccc1` (single isomer, unassigned; form 1) [listing 2 of 2 here]: in [2], the inhibition came out at 27%. Further, the Kif in experiment [3], in experiment [6] and in [10] was above 1000 nM each time.

As to `COc1ccc2c(c1)CCC1=CC(=O)CCC12Cc1ccccc1` (single isomer, unassigned; form 2) [listing 1 of 2 here], the Kif in [11], in [9] and in experiment [10] was above 1000 nM in each case.

On to `O=C1C=C2CCc3cc(O)ccc3C2(Cc2ccccc2)CC1` (single isomer, unassigned; form 2) [listing 1 of 2 here], for which the Ki is 180 nM on Androgen receptor, 0.157 µM at Glucocorticoid receptor and above 10 µM on Progesterone receptor.

`O=C1C=C2CCc3cc(O)ccc3C2(Cc2ccccc2)CC1` (single isomer, unassigned; form 2) [listing 2 of 2 here]: the inhibition in experiment [2] is 70%; on Estrogen receptor beta [4], 39%. Besides, the Kif in experiment [3], in experiment [6] and in [10] was above 1000 nM each time.

On to `COc1ccc2c(c1)CCC1=CC(=O)CCC12Cc1ccccc1` (single isomer, unassigned; form 2) [listing 2 of 2 here], for which the Ki at Androgen receptor is 54 nM; at Estrogen receptor it was above 10 µM; on Glucocorticoid receptor it was above 10 µM; at Estrogen receptor beta [1], above 10 µM; at Progesterone receptor, above 10 µM.
